Patent publication US20160051529A1, “PPAR-SPARING THIAZOLIDINEDIONES AND COMBINATIONS FOR THE TREATMENT OF NEURODEGENERATIVE AND OTHER METABOLIC DISEASES” (METABOLIC SOLUTIONS DEVELOPMENT COMPANY LLC, priority 2012, published 2016)

System: not listed separately
Assay: Glucose, triglycerides and insulin, T/C normalized to vehicle
Format: in vivo
Conditions: normalized to vehicle activity; @0.5

| SMILES | Triglycerides (mean T/C) |
| --- | --- |
| CCOC(Oc1ccc(OC[C@H](O)c2ccc(CC)cn2)cc1)C(=O)O (stereo partly drawn) [Compound 36] | 0.50@0.5 T/C |

Same assay, conditions: normalized to vehicle activity; @7.5

| SMILES | Insulin (T/C) | Triglycerides (mean T/C) |
| --- | --- | --- |
| CCOC(Oc1ccc(OC[C@@H](O)c2ccc(CC)cn2)cc1)C(=O)O (stereo partly drawn) [Compound 35] | 0.20@7.5 T/C | 0.32@7.5 T/C |
| CCOC(Oc1ccc(OC[C@H](O)c2ccc(CC)cn2)cc1)C(=O)O (stereo partly drawn) [Compound 36] | 0.26@7.5 T/C | 0.41@7.5 T/C |

Same assay, conditions: normalized to vehicle activity; @15

| SMILES | Insulin (T/C) | Triglycerides (mean T/C) |
| --- | --- | --- |
| CCOC(Oc1ccc(OC[C@@H](O)c2ccc(CC)cn2)cc1)C(=O)O (stereo partly drawn) [Compound 35] | 0.44@15 T/C | 0.24@15 T/C |
| CCOC(Oc1ccc(OC[C@H](O)c2ccc(CC)cn2)cc1)C(=O)O (stereo partly drawn) [Compound 36] | 0.33@15 T/C | – |

Same assay, conditions: normalized to vehicle activity; @30

| SMILES | Insulin (T/C) | Triglycerides (mean T/C) |
| --- | --- | --- |
| CCOC(Oc1ccc(OC[C@@H](O)c2ccc(CC)cn2)cc1)C(=O)O (stereo partly drawn) [Compound 35] | 0.11@30 T/C | 0.17@30 T/C |
| CCOC(Oc1ccc(OC[C@H](O)c2ccc(CC)cn2)cc1)C(=O)O (stereo partly drawn) [Compound 36] | 0.46@30 T/C | 0.38@30 T/C |

Same assay, conditions: normalized to vehicle activity; no dose given

| SMILES | Insulin (T/C) | Triglycerides (mean T/C) [T/C] |
| --- | --- | --- |
| CCO/C(=C\c1cccc(OCC(=O)c2cccc(OC)c2)c1)C(=O)O [Compound 13] | 0.81 | 0.86 |
| CCOC(Cc1ccc(OCC(=O)c2cccc(OC)c2)cc1)C(=O)O (stereo not drawn) [Compound 47] | 0.26 | 0.33 |

System: PGC-1α
Assay: Expression of PGC-1α mRNA in precursor BAT cells with norepinephrine
Format: cell-based
Conditions: 3 μM compound for seven days, then 1 μM norepinephrine for 2 hours, quantitative PCR
Method: Another example of the ability of augmented signaling between cyclic nucleotides and compounds of Formula I is shown by the effect on expression of PGC-1α, a known regulator of mitochondrial biogenesis. Increased numbers of mitochondria are predictive of utility for the reduction of body weight.
Precursor BAT cells were isolated as described above and treated with or without 3 μM compounds: 1.] Compound A: 5-(4-(2-(5-ethylpyridin-2-yl)-2-oxoethoxy)benzyl)-1,3-thiazolidine-2,4-dione; 2.] Compound B: 5-(4-(2R)-2-(5-ethylpyridin-2-yl)-2-hydroxyethoxyy)benzyl)-1,3-thiazolidine-2,4-dione; or 3.] Compound C: 5-(4-(2-(3-methoxyphenyl)-2-oxoethoxy)benzyl)-1,3-thiazolidine-2,4-dione for seven days followed by treatment with 1 μM norepinephrine for 2 hours. Total RNA was isolated from the cells and the RNA message (mRNA) for PGC-1α was measured by quantitative polymerase chain reactions.

| SMILES | PGC-1α mRNA (message) |
| --- | --- |
| CCc1ccc(C(=O)COc2ccc(CC3SC(=O)NC3=O)cc2)nc1 (stereo not drawn) [Compound A, 5-(4-(2-(5-ethylpyridin-2-yl)-2-oxoethoxy)benzyl)-1,3-thiazolidine-2,4-dione] | an increase in PGC-1α message was observed |
| CCc1ccc([C@@H](O)COc2ccc(CC3SC(=O)NC3=O)cc2)nc1 (stereo partly drawn) [Compound B] | an increase in PGC-1α message was observed |
| COc1cccc(C(=O)COc2ccc(CC3SC(=O)NC3=O)cc2)c1 (stereo not drawn) [Compound C, 5-(4-(2-(3-methoxyphenyl)-2-oxoethoxy)benzyl)-1,3-thiazolidine-2,4-dione] | an increase in PGC-1α message was observed |

System: 5XFAD mice
Assay: Plaque pathology in hippocampus of 5XFAD mice
Format: in vivo
Conditions: chow delivering 390 mg/kg for 4 weeks, same in the control group
Method: 5XFAD mice harbor 5 familial mutations (3 in the amyloid precursor protein; 2 in presenilin 1) and develop robust plaque pathology as early as 6 weeks. These mice were treated beginning at 2 months of age for a period of 4 weeks with control chow or chow containing Compound A to deliver 390 mg/kg for 4 weeks.
Referring to FIG. 7, […] stained plaques were counted in the hippocampus of the 5XFAD mice. […] Note that the plaques having less than 100 micron size were excluded from the graph, and those amounted to about 70% of all the plaques in both Control and Compound A treated groups.

| SMILES | plaques having less than 100 micron size, share of all the plaques |
| --- | --- |
| CCc1ccc(C(=O)COc2ccc(CC3SC(=O)NC3=O)cc2)nc1 (stereo not drawn) [Compound A, 5-(4-(2-(5-ethylpyridin-2-yl)-2-oxoethoxy)benzyl)-1,3-thiazolidine-2,4-dione] | about 70% |

Same assay, conditions: chow delivering 390 mg/kg for 4 weeks, versus control chow

| SMILES | size and number of thioflavin stained plaques in the hippocampus |
| --- | --- |
| CCc1ccc(C(=O)COc2ccc(CC3SC(=O)NC3=O)cc2)nc1 (stereo not drawn) [Compound A, 5-(4-(2-(5-ethylpyridin-2-yl)-2-oxoethoxy)benzyl)-1,3-thiazolidine-2,4-dione] | less than the control group |

Molecular target: T1, human PPARγ ligand binding domain (LBD) (Homo sapiens, UniProt P37231)
T1 construct: purchased Invitrogen #4894
T1 sequence (P37231 238-503 limits assumed): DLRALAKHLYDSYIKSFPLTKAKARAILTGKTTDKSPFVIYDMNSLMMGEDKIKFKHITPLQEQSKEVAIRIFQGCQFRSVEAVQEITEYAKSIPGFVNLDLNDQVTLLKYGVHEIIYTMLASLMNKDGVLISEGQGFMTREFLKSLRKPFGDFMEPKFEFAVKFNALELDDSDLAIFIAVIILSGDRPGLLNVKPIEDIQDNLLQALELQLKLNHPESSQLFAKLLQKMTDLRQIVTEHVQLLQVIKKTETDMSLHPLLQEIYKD
Assay: TR-FRET PPARγ competitive binding assay (Invitrogen LanthaScreen)
Conditions: not given
Method: Whereas activation of the PPARγ receptor is generally believed to be a selection criteria to select for molecules that may have anti-diabetic and insulin sensitizing pharmacology, this invention finds that activation of this receptor should be a negative selection criterion. Molecules will be chosen from this chemical space because they have reduced, not just selective, activation of PPARγ. […] The assays are conducted by first evaluation of the direct interactions of the molecules with the ligand binding domain of PPARγ. This can be performed with a commercial interaction kit that measures the direct interaction by florescence using rosiglitazone as a positive control.
PPARγ binding is measured by a TR-FRET competitive binding assay using Invitrogen LanthaScreen™ TR-FRET PPARγ Competitive Binding Assay (Invitrogen #4894). This assay uses a terbium-labeled anti-GST antibody to label the GST tagged human PPARγ ligand binding domain (LBD). A fluorescent small molecule pan-PPAR ligand tracer binds to the LBD causing energy transfer from the antibody to the ligand resulting in a high TR-FRET ratio. Competition binding by PPARγ ligands displace the tracer from the LBD causing a lower FRET signal between the antibody and tracer. The TR-FRET ratio is determined by reading the fluorescence emission at 490 and 520 nm using a Synergy2 plate reader (BioTek). The ability of several exemplary compounds of the present invention to bind to PPARγ was also measured using a commercial binding assay (Invitrogen Corporation, Carlsbad, Calif.) that measures the test compounds ability to bind with PPAR-LBD/Fluormone PPAR Green complex. These assays were performed on three occasions with each assay using four separate wells (quadruplicate) at each concentration of tested compound. The data are mean and SEM of the values obtained from the three experiments. Rosiglitazone was used as the positive control in each experiment. Compounds were added at the concentrations shown, which ranged from 0.1-100 micromolar.

| SMILES | IC50 [µM] |
| --- | --- |
| CCOC(Cc1ccc(OCC(=O)c2ccc(CC)cn2)cc1)C(=O)O (stereo not drawn) [Compound 1] | 17.8 |
| COc1cccc(C(=O)COc2ccc(CC(=O)C(=O)O)cc2)c1 [Compound 10] | 111 |
| CCO/C(=C\c1cccc(OCC(=O)c2cccc(OC)c2)c1)C(=O)O [Compound 13] | 21.8 |
| CCO/C(=C\c1ccc(OCC(=O)c2ccc(CC)cn2)cc1)C(=O)O [Compound 14] | 96.1 |
| COc1cccc(C(=O)COc2cccc(O[C@H](C)C(=O)O)c2)c1 [Compound 15] | 100 |
| CCO/C(=C\c1ccc(OC/C(=N/OC)c2ccc(CC)cn2)cc1)C(=O)O [Compound 17] | 21 |
| CCOC(Cc1ccc(OC/C(=N/OC)c2ccc(CC)cn2)cc1)C(=O)O (stereo not drawn) [Compound 18] | 62.2 |
| CCOC(Oc1ccc(OC[C@@H](O)c2ccc(CC)cn2)cc1)C(=O)O (stereo partly drawn) [Compound 35] | 0.3 |
| CCOC(Oc1ccc(OC[C@H](O)c2ccc(CC)cn2)cc1)C(=O)O (stereo partly drawn) [Compound 36] | 17.6 |
| CCOC(Cc1ccc(OCC(=O)c2cccc(OC)c2)cc1)C(=O)O (stereo not drawn) [Compound 47] | 6.07 |
| CCOC(Cc1ccc(OCC(=NO)c2cccc(OC)c2)cc1)C(=O)O (stereo not drawn) [Compound 48] | 14.7 |
| CCOC(Cc1ccc(OC[C@@H](F)c2cccc(OC)c2)cc1)C(=O)O (stereo partly drawn) [Compound 50] | 157 |
| COc1cccc(C(=O)COc2ccc(C[C@@H](O)C(=O)O)cc2)c1 [Compound 53] | > 263 |
| CCO[C@@H](Cc1ccc(OC[C@@H](NC(=O)OC(C)(C)C)c2ccccc2)cc1)C(=O)O [Compound 55] | 18.9 |
| CCO[C@@H](Cc1ccc(OC[C@@H](NC(C)=O)c2ccccc2)cc1)C(=O)O [Compound 56] | 33.7 |
| CCO[C@@H](Cc1ccc(OC[C@@H](N)c2ccccc2)cc1)C(=O)O [Compound 57] | 39.7 |
| CCO[C@@H](Cc1ccc(OC[C@@H](NC=O)c2ccccc2)cc1)C(=O)O [Compound 58] | 12.3 |
| CCO[C@@H](Cc1ccc(OC[C@H](NC=O)c2ccccc2)cc1)C(=O)O [Compound 59] | > 250 |
| CCO[C@@H](Cc1ccc(OC[C@H](NS(C)(=O)=O)c2ccccc2)cc1)C(=O)O [Compound 60] | 80.3 |
| CCOC(=O)[C@H](Cc1ccc(OC[C@@H](NC(=O)OC(C)(C)C)c2ccccc2)cc1)OCC [Compound 61] | 14.1 |
| CCOC(=O)[C@H](Cc1ccc(OC[C@@H](N)c2ccccc2)cc1)OCC [Compound 62] | 84.8 |
